Source: ChEMBL document CHEMBL5244223, “l,8-Naphthalimide based DNA intercalators and anticancer agents. A systematic review from 2007 to 2017” (Eur J Med Chem, 2018)
Values after ≈ are worked out from the molar mass of the structure shown.

What was measured:
[1] = Antiproliferative activity against human QSG7701 cells assessed as inhibition of cell proliferation incubated for 48 hrs by MTT assay; format: toxicity, cell-based
MDA-MB-231 = assay: Antiproliferative activity against human MDA-MB-231 cells assessed as inhibition of cell proliferation incubated for 48 hrs by MTT assay; format: functional, cell-based; details: MDA-MB-231, 48 h
HepG2 = assay: Antiproliferative activity against human HepG2 cells assessed as inhibition of cell proliferation incubated for 48 hrs by MTT assay; format: functional, cell-based; details: HepG2, 48 h
SMMC-7721 = assay: Antiproliferative activity against human SMMC-7721 cells assessed as inhibition of cell proliferation incubated for 48 hrs by MTT assay; format: functional, cell-based; details: SMMC-7721, 48 h
HCT-116 = assay: Antiproliferative activity against human HCT-116 cells assessed as inhibition of cell proliferation incubated for 48 hrs by MTT assay; format: functional, cell-based; details: HCT-116, 48 h
K562 [2] = assay: Antiproliferative activity against human K562 cells assessed as inhibition of cell proliferation incubated for 48 hrs by MTT assay; format: functional, cell-based; details: K562, 48 h
Pseudomonas aeruginosa = assay: Antibacterial activity against Pseudomonas aeruginosa MTCC 741 assessed as inhibition of bacterial growth by agar well diffusion assay; format: functional
Calf thymus DNA = assay: Binding affinity to calf thymus DNA assessed as DNA intercalation by measuring change in melting temperature by thermal denaturation assay; format: nucleic-acid assay; details: Bos taurus
Escherichia coli = assay: Antibacterial activity against Escherichia coli MTCC 443 assessed as inhibition of bacterial growth by agar well diffusion assay; format: functional
Staphylococcus aureus = assay: Antibacterial activity against Staphylococcus aureus MTCC 96 assessed as inhibition of bacterial growth by agar well diffusion assay; format: functional
[3] = tested on: Staphylococcus epidermidis; assay: Antibacterial activity against Staphylococcus epidermidis MTCC 435 assessed as inhibition of bacterial growth by agar well diffusion assay; format: functional
HeLa [4] = assay: Cytotoxicity against human HeLa cells assessed as inhibition of cell growth incubated for 48 hrs by MTT assay; format: functional, cell-based
A549 = assay: Cytotoxicity against human A549 cells assessed as inhibition of cell growth incubated for 48 hrs by MTT assay; format: functional, cell-based; details: A549, 48 h
K562 [5] = assay: Cytotoxicity against human K562 cells assessed as inhibition of cell growth incubated for 48 hrs by MTT assay; format: functional, cell-based; details: K562, 48 h
L1210 = assay: Antiproliferative activity against mouse L1210 cells assessed as inhibition of cell proliferation incubated for 48 hrs by coulter counter assay; format: functional, cell-based; details: L1210, 48 h
HeLa [6] = assay: Antiproliferative activity against human HeLa cells assessed as inhibition of cell proliferation incubated for 48 hrs by coulter counter assay; format: functional, cell-based
[7] = Antiproliferative activity against human HMEC-1 cells assessed as inhibition of cell proliferation incubated for 48 hrs by coulter counter assay; format: toxicity, cell-based
CCRF-CEM = assay: Antiproliferative activity against human CEM cells assessed as inhibition of cell proliferation incubated for 48 hrs by coulter counter assay; format: functional, cell-based

MIC (Pseudomonas aeruginosa) [µg/mL] | MIC (Escherichia coli) [µg/mL] | MIC (Staphylococcus aureus) [µg/mL] | MIC [3] [µg/mL] | Compound | IC50 (L1210) [µM] | IC50 (HeLa [6]) [µM] | IC50 at 48 h [7] [µM] | IC50 (CCRF-CEM) [µM] | further results
– | – | – | – | CCCCCCCNC(=O)Nc1cc2c3c(cccc3c1)C(=O)N(CCN(C)C)C2=O | – | – | – | – | IC50 at 48 h [1]: > 50 µM; IC50 (MDA-MB-231): > 50 µM; IC50 (HepG2): > 50 µM; IC50 (SMMC-7721): > 50 µM; IC50 (HCT-116): > 50 µM; IC50 (K562 [2]): > 50 µM
– | – | – | – | CN(C)CCN1C(=O)c2cccc3cc(NC(=O)CNCCCNCCCCNCCCN)cc(c23)C1=O | – | – | – | – | IC50 at 48 h [1]: 6.42 µM; IC50 (MDA-MB-231): 6.42 µM; IC50 (HepG2): 6.42 µM; IC50 (SMMC-7721): 6.42 µM; IC50 (HCT-116): 6.42 µM; IC50 (K562 [2]): 6.42 µM
– | – | – | – | CN(C)CCN1C(=O)c2cccc3cc(NC(=O)NCCCCN)cc(c23)C1=O | – | – | – | – | IC50 at 48 h [1]: > 50 µM; IC50 (MDA-MB-231): > 50 µM; IC50 (HepG2): > 50 µM; IC50 (SMMC-7721): > 50 µM; IC50 (HCT-116): > 50 µM; IC50 (K562 [2]): > 50 µM
18.8 (≈ 18.1 µM) | 18.8 (≈ 18.1 µM) | 18.8 (≈ 18.1 µM) | 18.8 (≈ 18.1 µM) | O=C1c2ccc3c4c(ccc(c24)C(=O)N1c1nc(-c2cc4cc(Br)cc(Br)c4oc2=O)cs1)C(=O)N(c1nc(-c2cc4cc(Br)cc(Br)c4oc2=O)cs1)C3=O | – | – | – | – | ΔTm (Calf thymus DNA): 0.1 °C
– | – | – | – | CN(C)CCN1C(=O)c2cccc3cc(NC(=O)CNCCCCNCCCN)cc(c23)C1=O | – | – | – | – | IC50 at 48 h [1]: 6.42 µM; IC50 (MDA-MB-231): 6.42 µM; IC50 (HepG2): 6.42 µM; IC50 (SMMC-7721): 6.42 µM; IC50 (HCT-116): 6.42 µM; IC50 (K562 [2]): 6.42 µM
– | – | – | – | CN(C)CCNC(=O)Nc1cc2c3c(cccc3c1)C(=O)N(CCN(C)C)C2=O | – | – | – | – | IC50 at 48 h [1]: > 50 µM; IC50 (MDA-MB-231): > 50 µM; IC50 (HepG2): > 50 µM; IC50 (SMMC-7721): 8.62 µM; IC50 (HCT-116): 8.62 µM; IC50 (K562 [2]): 8.62 µM
– | – | – | – | CN(C)CCN1C(=O)c2cccc3cc(NC(=O)CCCN)cc(c23)C1=O | – | – | – | – | IC50 (HeLa [4]): 21.5 µM; IC50 (A549): 4.7 µM; IC50 (K562 [5]): 8.5 µM
– | – | – | – | CN(C)CCN1C(=O)c2cccc3cc(NC(=O)CCCCCNC(=O)C(Cl)Cl)cc(c23)C1=O | – | – | – | – | IC50 (HeLa [4]): 21.5 µM; IC50 (A549): 4.7 µM; IC50 (K562 [5]): 8.5 µM
– | – | – | – | CCOP(=O)(CCCn1cc(CN2C(=O)c3cccc4cc([N+](=O)[O-])cc(c34)C2=O)nn1)OCC | > 250 | > 250 | > 250 | > 250 | –
18.8 (≈ 56.6 µM) | 18.8 (≈ 56.6 µM) | 18.8 (≈ 56.6 µM) | 18.8 (≈ 56.6 µM) | O=C(O)c1cn(C2CC2)c2cc(N3CCNCC3)c(F)cc2c1=O [CIPROFLOXACIN] | – | – | – | – | –
– | – | – | – | CCOP(=O)(Cn1cc(CN2C(=O)c3cccc4c(Br)ccc(c34)C2=O)nn1)OCC | > 250 | > 250 | > 250 | > 250 | –
18.8 (≈ 32.2 µM) | 18.8 (≈ 32.2 µM) | 18.8 (≈ 32.2 µM) | 18.8 (≈ 32.2 µM) | O=C1c2cccc3cccc(c23)C(=O)N1c1nc(-c2cc3cc(Br)cc(Br)c3oc2=O)cs1 | – | – | – | – | ΔTm (Calf thymus DNA): 0.1 °C
18.8 (≈ 44.2 µM) | 18.8 (≈ 44.2 µM) | 18.8 (≈ 44.2 µM) | 18.8 (≈ 44.2 µM) | O=C1c2cccc3cccc(c23)C(=O)N1c1nc(-c2cc3ccccc3oc2=O)cs1 | – | – | – | – | ΔTm (Calf thymus DNA): 0.1 °C
– | – | – | – | CCOP(=O)(CCCCn1cc(CN2C(=O)c3cccc4c(Br)ccc(c34)C2=O)nn1)OCC | > 250 | > 250 | > 250 | > 250 | –
– | – | – | – | CCOP(=O)(CCOCCn1cc(CN2C(=O)c3cccc4c(Br)ccc(c34)C2=O)nn1)OCC | > 250 | > 250 | > 250 | > 250 | –
18.8 (≈ 41.3 µM) | 18.8 (≈ 41.3 µM) | 18.8 (≈ 41.3 µM) | 18.8 (≈ 41.3 µM) | COc1cccc2cc(-c3csc(N4C(=O)c5cccc6cccc(c56)C4=O)n3)c(=O)oc12 | – | – | – | – | ΔTm (Calf thymus DNA): 0.1 °C
– | – | – | – | CCOP(=O)(CCCn1cc(CN2C(=O)c3cccc4c(Br)ccc(c34)C2=O)nn1)OCC | > 250 | > 250 | > 250 | > 250 | –
– | – | – | – | CCOP(=O)(CCCCn1cc(CN2C(=O)c3cccc4cc([N+](=O)[O-])cc(c34)C2=O)nn1)OCC | > 250 | > 250 | > 250 | > 250 | –
– | – | – | – | CCOP(=O)(CCn1cc(CN2C(=O)c3cccc4cccc(c34)C2=O)nn1)OCC | > 250 | > 250 | > 250 | > 250 | –
18.8 (≈ 37.3 µM) | 18.8 (≈ 37.3 µM) | 18.8 (≈ 37.3 µM) | 18.8 (≈ 37.3 µM) | O=C1c2cccc3cccc(c23)C(=O)N1c1nc(-c2cc3cc(Br)ccc3oc2=O)cs1 | – | – | – | – | ΔTm (Calf thymus DNA): 0.1 °C
18.8 (≈ 21.3 µM) | 18.8 (≈ 21.3 µM) | 18.8 (≈ 21.3 µM) | 18.8 (≈ 21.3 µM) | O=C1c2ccc3c4c(ccc(c24)C(=O)N1c1nc(-c2cc4cc(Br)ccc4oc2=O)cs1)C(=O)N(c1nc(-c2cc4cc(Br)ccc4oc2=O)cs1)C3=O | – | – | – | – | ΔTm (Calf thymus DNA): 0.1 °C
– | – | – | – | CN(C)CCN1C(=O)c2cccc3cc(NC(=O)CNC(=O)C(Cl)Cl)cc(c23)C1=O | – | – | – | – | IC50 (HeLa [4]): 21.5 µM; IC50 (A549): 4.7 µM; IC50 (K562 [5]): 8.5 µM
